Columns and labels:
Type in all cases: physicochemical
[1] = X-ray powder diffraction analysis (XRPD) of crystallinity
Text: X-ray powder diffraction analysis (“XRPD”) was employed to determine the effect of spatial sampling on the crystallinity of danazol. Characteristic peaks at 20 (2 theta) of 15.8, 17.1 and 19.0 in the XRD pattern of unprocessed danazol were used as reference. In processed danazol, the intensity of the characteristic peaks decreased as the collection distance of the spray is increased. These figures show nanoparticles, approximately 20 nm to 60 nm in diameter, assembled in a dense network.
(§1) Processed danazol was collected at distances between 5 cm and 30 cm from the spray nozzle. For SEM analysis, the spray was collected on glass slides and coated with Pd/Pt. An Ultra55 Field Emission SEM (Zeiss) coupled with an EDX detector was used. The size distribution of the nanoparticles was determined by image analysis of SEM photographs using ImageJ. For XRPD analysis, samples were collected in an aluminum box over which the spray dryer was mounted. XPRD analysis was performed using a Scintag XDS2000 powder diffractometer (Scintag, Cupertino, California, USA) with Cu Ka (K-alpha) radiation at 40 kV and 30 mA. The XRD patterns were taken at room temperature in the range of 10°≦2θ≦50° (2 theta) with a scan rate of 1° min^−1 and a step size of 0.02°.

[2] = SEM analysis of particle size and morphology of spray-dried drug; details: microfluidic spray dryer; danazol in IPA and pure IPA (antisolvent replaced by solvent)
Description: To evaluate the effect of microfluidic processing on particle size and morphology of the hydrophobic drug, no stabilizer or surfactant was added to influence the particle growth. […] Morphology and particle size of the processed drug was examined by scanning electron microscopy (“SEM”) analysis. […] The scale bar denotes 300 nm.
as §1

[3] = Energy dispersive X-ray (EDX) analysis of chemical composition after spray drying; details: unprocessed vs processed danazol, either solvent system (IPA/water, IPA/IPA)
Description: Scale bar denotes 300 nm.
as §1

C#C[C@]1(O)CC[C@H]2[C@@H]3CCC4=Cc5oncc5C[C@]4(C)[C@H]3CC[C@@]21C [danazol]
crystallinity (XRPD) ([1]; conventional Mini Spray Dryer B 191, solution of danazol in IPA): retained | crystallinity (intensity of characteristic XRPD peaks) ([1]; microfluidic spray dryer, collection distance of the spray increased (5 cm to 30 cm)): initial crystallinity of the drug was not recovered | crystallinity (XRPD pattern) ([1]; microfluidic spray dryer, danazol in IPA with water, collected 5 cm from nozzle): crystalline aggregates | size and morphology of nanoparticles compared with IPA/water system [2]: identical size and morphology | chemical composition of the drug during the spray drying process [3]: remained unchanged
